Km data for 1 compound are collected here from paper PMC3655044, “Construction of a chimeric thermoacidophilic beta-endoglucanase” (BMC Biochemistry, 2013).

The test system of this experiment is T1, CelA-SSO1949-CelA.
T1 construct: 70 aa CelA + 163 aa SSO1949 + 29 aa CelA, 262 aa, ~29 kDa, no purification tag
Description: FRET fluorescence assay, initial rates. It is filed as biochemical, Thermotoga maritima; Saccharolobus solfataricus. Particulars: 80°C; pH 3; 0.1 M sodium phosphate. From the text: FRET fluorescence assay, initial rates on CelA-SSO1949-CelA

Molecules are shown by their SMILES.

`CN(C)c1ccc(/N=N/c2ccc(NC(=S)N[C@H]3[C@H](O)[C@@H](O)[C@H](O[C@H]4[C@H](O)[C@@H](O)[C@H](O[C@H]5[C@H](O)[C@@H](O)[C@H](O[C@H]6[C@H](O)[C@@H](O)[C@H](O[C@H]7[C@H](O)[C@@H](O)[C@H](O[C@H]8[C@H](O)[C@@H](O)[C@H](SCC(=O)NCCNc9cccc%10c(S(=O)(=O)O)cccc9%10)O[C@@H]8CO)O[C@@H]7CO)O[C@@H]6CO)O[C@@H]5CO)O[C@@H]4CO)O[C@@H]3CO)cc2)cc1` [fluorescent cellohexaoside, sodium N-{2-N-[(S-(4-deoxy-4-dimethylamino-phenylazophenylthioureido-β-D-glucopyranosyl)-(1→4)-β-D-glucopyranosyl-(1→4)-β-D-glucopyranosyl-(1→4)-β-D-glucopyranosyl-(1→4)-β-D-glucopyranosyl-(1→4)-β-D-glucopyranosyl)-2-thioacetyl]aminoethyl}-1-naphthylamine-5-sulphonate]: the Km worked out at 1.74 ± 0.15 µM.
